Laboratory results reported in US10046048B2, “Homogenous suspension of immunopotentiating compounds and uses thereof” (GlaxoSmithKline Biologicals SA, priority 2009, dated 2018).

Tests used:
[1] = aqueous solubility and chemical stability of Example 47; format: physicochemical
Method: Example 47 is a highly crystalline drug substance with very good chemical stability. Due to its extremely low aqueous solubility across full pH range (<0.5 μg/ml) and its high hydrophobic core structure, formulation with Alum (the only vaccine adjuvant licensed in the U.S.) is challenging. However, TLR7 agonist-Alum based vaccines could provide advantages, for example, induction of Th1 polarized response, and enhanced Serum Bactericidal Activity (SBA) and breath of coverage (e.g., MenB).

[2] = particle size after vortexing, sonication, mortar and pestle; format: physicochemical; conditions: for average particle size: 2.5 mg/mL in 0.1% Tween 80 and 0.5% CMC, vortexing
Method: A number of homogenization methods were evaluated, including vortexing, sonication, and mortar and pestle method.
For vortexing, Example 47 was suspended at 2.5 mg/mL in 0.1% Tween 80 and 0.5% carboxymethyl cellulose (CMC), followed by vortexing. The average particle size was ˜100 μm.
For sonication, Example 47 was suspended at 2.5 mg/mL in 0.1% Tween 80 and 0.5% CMC followed by vortexing. The mixture was then subject to probe sonication for 5 minutes (with ice at 3 W, maximum power based on vial size). Finally, the mixture was homogenized by a handheld homogenizer for a few minutes. The average particle size was ˜80 μm.
In mortar and pestle method, 10 mg of Example 47 was ground for 5 minutes using mortar and pestle, then suspended in 0.5% Tween 80. […] Size range for the larger peak was 1-100 μm.

[3] = matrix of surfactants and suspending agents, size distribution by Mastersizer; format: physicochemical; conditions: vortexed, probe sonicated, homogenized
Method: A number of surfactants and suspension agents were also evaluated. The matrix of surfactants and suspending agents, and the corresponding sizes distributions of the suspension particles are shown in the Table 1 below (D50, D90 (μm)).
In each experiment, 10 mg of Example 47 was mixed with 2 mL surfactant and 2 mL suspending agent. The mixtures were vortexed for 5 minutes, and probe sonicated at 3 W and homogenized for 2-4 minutes. The size distributions of the samples were measured using Mastersizer.
No visual size reduction was observed after sonication. Some size reduction was noticed visually after homogenization.

[4] = serum, injection site muscle and lymph node levels after intramuscular injection; format: in vivo; conditions: mice, intramuscular 4 mpk with 3MenB/Alum; both DMSO (non-homogeneous) and homogeneous suspensions
RSV virus = assay: neutralizing titers (PRNT60), RSV model; format: in vivo, respiratory syncytial virus (RSV); conditions: Study 1; Balb/c mice; 25 μg dose
Excerpt: Mice were bled retro-orbitally on day 28.

[5] = 10 mg ground 5 minutes with mortar and pestle, suspended in 0.5% Tween 80
[6] = 0.5% CMC, 0.5% Sodium Lauryl Sulfate
[7] = 0.5% HPC, 0.5% Sodium Lauryl Sulfate
[8] = 0.5% HPMC, 0.5% Sodium Lauryl Sulfate

For Cc1ccc(CCc2cnc3c(N)nc4ccccc4c3c2)c(C)c1 [Example 47, 2-(2,4-dimethylphenethyl)benzo[f][1,7]naphthyridin-5-amine], the solubility ([1]; aqueous media, across full pH range) was under 0.5 µg/mL, the chemical stability ([1]; crystalline drug substance) was “very good” and the average particle size [2] was about 100 μm. For the same compound, the average particle size ([2]; probe sonication 5 minutes, handheld homogenizer) was about 80 μm, the “particle size peak (larger)” value [2, 5] was about 8 μm and the “particle size peak (smaller)” value [2, 5] was 0.1 μm. The “size range for the larger peak” value [2, 5] was 1-100 μm, the D50 ([3]; 0.5% CMC, 0.1% Tween 80) was 76.2 μm and the D90 ([3]; 0.5% CMC, 0.1% Tween 80) was 144.7 μm. The D50 ([3]; 0.5% CMC, 0.5% Pluronic F-68) was 49.1 μm, the D90 ([3]; 0.5% CMC, 0.5% Pluronic F-68) was 104.4 μm and the D50 [3, 6] was 28.0 μm. For the same compound, the D90 [3, 6] was 53.3 μm, the D50 ([3]; 0.5% CMC, 0.5% Tween 80) was 75.8 μm and the D90 ([3]; 0.5% CMC, 0.5% Tween 80) was 149.1 μm. For the same compound, the D50 ([3]; 0.5% HPC, 0.1% Tween 80) was 43.6 μm, the D90 ([3]; 0.5% HPC, 0.1% Tween 80) was 68.0 μm and the D50 ([3]; 0.5% HPC, 0.5% Pluronic F-68) was 35.8 μm. The D90 ([3]; 0.5% HPC, 0.5% Pluronic F-68) was 54.9 μm, the D50 [3, 7] was 38.9 μm and the D90 [3, 7] was 53.1 μm. For the same compound, the D50 ([3]; 0.5% HPC, 0.5% Tween 80) was 35.4 μm, the D90 ([3]; 0.5% HPC, 0.5% Tween 80) was 53.5 μm and the D50 ([3]; 0.5% HPMC, 0.1% Tween 80) was 25.8 μm. For the same compound, the D90 ([3]; 0.5% HPMC, 0.1% Tween 80) was 53.5 μm, the D50 ([3]; 0.5% HPMC, 0.5% Pluronic F-68) was 19.4 μm and the D90 ([3]; 0.5% HPMC, 0.5% Pluronic F-68) was 33.5 μm. For the same compound, the D50 [3, 8] was 26.8 μm, the D90 [3, 8] was 59.3 μm and the D50 ([3]; 0.5% HPMC, 0.5% Tween 80) was 27.5 μm. For the same compound, the D90 ([3]; 0.5% HPMC, 0.5% Tween 80) was 49.7 μm, the systemic exposure [4] was “low systemic exposure” and the “neutralizing titers, comparison of doses” value (RSV virus) was “Highest neutralizing titers”.
